From ChEMBL document CHEMBL1153663, “Inhibition of human erythrocyte calpain I by novel quinolinecarboxamides” (Bioorg Med Chem Lett, 1995)

Target: T1, Calpain-1 catalytic subunit (Homo sapiens) (UniProt P07384)
T1 sequence (whole entry): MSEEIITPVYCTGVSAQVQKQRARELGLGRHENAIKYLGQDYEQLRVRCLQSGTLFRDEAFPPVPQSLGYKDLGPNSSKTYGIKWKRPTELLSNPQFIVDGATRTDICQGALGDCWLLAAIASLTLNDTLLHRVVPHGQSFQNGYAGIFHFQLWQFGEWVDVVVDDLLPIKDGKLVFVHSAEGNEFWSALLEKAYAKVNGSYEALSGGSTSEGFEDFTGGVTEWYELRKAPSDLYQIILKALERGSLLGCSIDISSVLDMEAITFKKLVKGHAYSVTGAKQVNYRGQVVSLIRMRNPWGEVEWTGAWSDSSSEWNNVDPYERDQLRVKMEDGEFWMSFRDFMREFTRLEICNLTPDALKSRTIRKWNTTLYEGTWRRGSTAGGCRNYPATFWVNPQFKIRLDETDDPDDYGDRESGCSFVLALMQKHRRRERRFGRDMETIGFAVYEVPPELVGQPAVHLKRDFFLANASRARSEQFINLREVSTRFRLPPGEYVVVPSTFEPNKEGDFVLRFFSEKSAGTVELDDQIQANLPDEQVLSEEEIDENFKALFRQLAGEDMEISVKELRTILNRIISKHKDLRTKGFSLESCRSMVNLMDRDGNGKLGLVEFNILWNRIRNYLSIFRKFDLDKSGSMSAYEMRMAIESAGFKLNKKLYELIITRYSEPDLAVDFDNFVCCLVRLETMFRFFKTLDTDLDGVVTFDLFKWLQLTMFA
Experiment: In vitro inhibitory activity against human erythrocyte Calpain 1 at a concentration of 50 uM

| inhibition [%] | SMILES |
| --- | --- |
| < 10 | NC(=O)c1cn(-c2ccc(O)cc2)c2ccccc2c1=O |
| < 10 | O=C(NCCO)c1cn(-c2ccc(O)cc2)c2cc(-c3ccncc3)ccc2c1=O |
| < 10 | CN(C)C(=O)c1cn(-c2ccc(O)cc2)c2cc(-c3ccncc3)ccc2c1=O |
| < 10 | Cc1cncc(C)c1-c1ccc2c(=O)c(C(N)=O)cn(-c3ccc(O)cc3Cl)c2c1 |
| < 10 | CNC(=O)c1cn(-c2ccc(O)cc2)c2cc(-c3ccncc3)ccc2c1=O |
| < 10 | Cc1cc(-n2cc(C(N)=O)c(=O)c3ccc(-c4ccncc4)cc32)cc(C)c1O |
| < 10 | O=C(NO)c1cn(-c2ccc(O)cc2)c2cc(-c3ccncc3)ccc2c1=O |
| < 10 | NC(=O)c1cn(-c2ccc(O)cc2)c2cc(-c3ccccc3)ccc2c1=O |

Target: T2, Calpain-1 catalytic subunit (Homo sapiens, UniProt P07384)
T2 sequence (P07384 whole entry): T1 sequence (whole entry)
Experiment: In vitro inhibitory activity against human erythrocyte Calpain 1

| SMILES | IC50 [µM] |
| --- | --- |
| CC(=O)N[C@@H](CC(C)C)C(=O)N[C@@H](CC(C)C)C(=O)N[C@H](C=O)CCCNC(=N)N [LEUPEPTIN] | 0.3 |
| NC(=O)c1cn(-c2ccc(O)cc2Cl)c2cc(-c3ccccn3)ccc2c1=O | 30 |
| NC(=O)c1cn(-c2ccc(O)cc2Cl)c2cc(-c3ccncc3Cl)ccc2c1=O | 2 |
| NC(=O)c1cn(-c2ccc(O)cc2Cl)c2cc(-c3cccnn3)ccc2c1=O | 2 |
| NC(=O)c1cn(-c2ccc(O)cc2Cl)c2cc(-c3ccoc3)ccc2c1=O | 2 |
| NC(=O)c1cn(-c2ccc(O)cc2Cl)c2cc(-n3cccn3)ccc2c1=O | 0.6 |

Further lines, results first:

| IC50 [µM] | SMILES |
| --- | --- |
| 0.5 | Cc1cc(O)ccc1-n1cc(C(N)=O)c(=O)c2ccc(-c3ccncc3)cc21 |
| 0.5 | NC(=O)c1cn(-c2ccc(O)cc2Cl)c2cc(-c3ccncc3)ccc2c1=O |
| 30 | NC(=O)c1cn(-c2ccc(O)cc2Cl)c2cc(-c3ccnc(F)c3)ccc2c1=O |
| 20 | O=C(O)c1cn(-c2ccc(O)cc2)c2cc(-c3ccncc3)ccc2c1=O |
| 10 | NC(=O)c1cn(-c2ccc(O)cc2Cl)c2cc(-c3cccnc3)ccc2c1=O |
| 20 | NC(=O)c1cn(-c2ccc(O)cc2C(F)(F)F)c2cc(-c3ccncc3)ccc2c1=O |
| 7 | NC(=O)c1cn(-c2ccc(O)cc2F)c2cc(-c3ccncc3)ccc2c1=O |

Target: Cathepsin B (Homo sapiens, UniProt P07858)
Experiment: In vitro inhibitory activity against Cathepsin B

| IC50 [µM] | SMILES |
| --- | --- |
| 25 | NC(=O)c1cn(-c2ccc(O)cc2Cl)c2cc(-c3ccncc3)ccc2c1=O |
| 32 | NC(=O)c1cn(-c2ccc(O)cc2)c2cc(-c3ccncc3)ccc2c1=O |

Target: Procathepsin L (Homo sapiens, UniProt P07711)
Sequence (P07711 whole entry): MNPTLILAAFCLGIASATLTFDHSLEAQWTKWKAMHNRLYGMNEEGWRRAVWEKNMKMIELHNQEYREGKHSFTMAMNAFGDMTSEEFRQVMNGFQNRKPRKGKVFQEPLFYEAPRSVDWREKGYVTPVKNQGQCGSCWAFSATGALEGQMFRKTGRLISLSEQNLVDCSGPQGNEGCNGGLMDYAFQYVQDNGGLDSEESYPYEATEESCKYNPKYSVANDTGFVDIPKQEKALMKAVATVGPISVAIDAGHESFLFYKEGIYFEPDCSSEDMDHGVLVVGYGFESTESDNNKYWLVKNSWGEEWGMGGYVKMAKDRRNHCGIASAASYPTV
Experiment: In vitro inhibitory activity against cathepsin L

| IC50 [µM] | SMILES |
| --- | --- |
| 22 | NC(=O)c1cn(-c2ccc(O)cc2Cl)c2cc(-c3ccncc3)ccc2c1=O |
| 37 | NC(=O)c1cn(-c2ccc(O)cc2)c2cc(-c3ccncc3)ccc2c1=O |
